US20030032824A1, “Meiosis regulating compounds” (priority 1996, published 2003)

Columns and labels:
[1] = system: cumulus enclosed oocytes (CEO); test: Oocyte test, inhibition of FF-MAS induced meiosis in cumulus enclosed oocytes (CEO); type: cell-based, mice
Procedure: (§1) The ovaries were dissected out and the oocytes were isolated in Hx-medium (see below) under a stereo microscope by manual rupture of the follicles using a pair of 27 gauge needles. Spherical oocytes displaying an intact germinal vesicle (GV) were divided in cumulus enclosed oocytes (CEO) and naked oocytes (NO) and placed in α-minimum essential medium (α-MEM without ribonucleosides, Gibco BRL, Cat. No. 22561) supplemented with 3 mM hypoxanthine (Sigma Cat. No. H-9377), 8 mg/ml Human Serum Albumin (HSA, State Serum Institute, Denmark), 0.23 mM pyruvate (Sigma, Cat. No S-8636), 2 mM glutamine (Flow Cat. No. 16-801), 100 IU/mi penicillin and 100 μg/ml streptomycin (Flow, Cat No. 16-700). This medium was designated Hx-medium.
(§2) The cultures were performed at 37° C. and 100% humidity with 5% CO2 in air. The culture time was 22-24 hours.
(§3) By the end of the culture period, the number of oocytes with germinal vesicle (GV) or germinal vesicle breakdown (GVB) and those with polar body (PB) was counted using a stereo microscope or an inverted microscope with differential interference contrast equipment. The percentage of oocytes with GVB per total number of oocytes and the percentage of oocytes with PB per total number of oocytes was calculated in the test cultures and compared to the control culture.
(§4) Germinal vesicle (GV) oocytes were obtained from immature FSH treated female mice using the same methods as described in Example 1 (see above). The oocytes were rinsed three times in Hx-medium and oocytes of uniform size were divided into groups of CEO and NO. […] CEO and NO were cultured in Hx-medium supplemented with 0.7-7.0 μM FF-MAS in co-culture with the test compounds in different concentrations in 4-well multidishes (Nunclon, Denmark) in which each well contained 0.4 ml of Hx-medium and 35-45 oocytes. One control (i.e., 35-45 oocytes cultured in Hx-medium containing FF-MAS with no addition of test compound) was always run simultaneously with the test cultures, which were supplemented with different concentrations of the compounds to be tested.

naked oocytes (NO) [2] = test: Oocyte test, inhibition of FF-MAS induced meiosis in naked oocytes (NO); type: cell-based, mice
Procedure: as §1, §2, §3, §4

CEO and NO = CEO and NO in vitro, previously shown; cited from earlier work
[3] = system: cumulus enclosed oocytes (CEO); test: Oocyte test, activation of meiosis in cumulus enclosed oocytes (CEO) cultured in Hx-medium; type: cell-based, mice
Procedure: (§5) Oocytes were obtained from immature female mice (C57BI/6J×DBA/2J F1-hybrids, Bomholtgaard, Denmark) weighing 13-16 grams, that were kept under controlled lighting and temperature. The mice received an intra-peritoneal injection of 0.2 ml gonadotropins (Gonal-F, Serono, Solna, Sweden, containing 20 IU FSH, alternatively, Puregon, Organon, Swords, Ireland containing 20 IU FSH) and 48 hours later the animals were killed by cervical dislocation.
as §1
(§6) The oocytes were rinsed three times in Hx-medium and oocytes of uniform size were divided into groups of CEO and NO. CEO and NO were cultured in 4-well multidishes (Nunclon, Denmark) in which each well contained 0.4 ml of Hx-medium and 35-45 oocytes. […]
as §3

naked oocytes (NO) [4] = test: Oocyte test, activation of meiosis in naked oocytes (NO) cultured in Hx-medium; type: cell-based, mice
Procedure: as §5, §1, §6, §3

[5] = FF-MAS 0.7 μM alone (control, no 22R)
[6] = FF-MAS 7 μM alone (control, no 22R)
[7] = FF-MAS 1.2 μM alone (control, no 22R)
[8] = FF-MAS 0.7 μM + 22R 25 μM (ratio 1:36)
[9] = FF-MAS 7 μM + 22R 12.5 μM (ratio 1:2)
[10] = FF-MAS 0.7 μM + 22R 13 μM (ratio 1:19)
[11] = FF-MAS 1.2 μM + 22R 25 μM (ratio 1:20)
[12] = CEO, test concentration 7.0 μM, culture 22-24 hours
[13] = NO, test concentration 7.0 μM, culture 22-24 hours

## CC(C)=CCC[C@@H](C)[C@H]1CC=C2C3=C(CC[C@@]21C)[C@@]1(C)CC[C@H](O)C(C)(C)C1CC3 (stereo partly drawn) [FF-MAS, 4,4-Dimethylcholest-8,14,24-trien-3β-ol, reference compound]
[1]; [5]
  % GVB: 21.7%
  % PB: 10.8%
[1]; [6]
  % GVB: 39.0%
  % PB: 18.9%
Naked oocytes (NO) [2]; [5]
  % GVB: 33.0%
  % PB: 7.8%
Naked oocytes (NO) [2]; [7]
  % GVB: 19.5%
  % PB: 9.5%
CEO and NO
  induction of meiosis: induce meiosis in CEO and NO in vitro

## CC(C)CC[C@@H](O)[C@@H](C)[C@H]1CC[C@H]2[C@@H]3CC=C4C[C@@H](O)CC[C@]4(C)[C@H]3CC[C@]12C [Example 22R, cholest-5-en-3β,(22R)-diol]
[1]; [8]
  % GVB: 6.9%
  % PB: 3.4%
[1]; [9]
  % GVB: 21%
  % PB: 3.5%
[1]; co-culture with FF-MAS
  antagonism of FF-MAS induced resumption of meiosis: antagonises the FF-MAS induced resumption of meiosis in a dose-related manner
Naked oocytes (NO) [2]; [10]
  % GVB: 16.9%
  % PB: 0%
Naked oocytes (NO) [2]; [8]
  % GVB: 2.9%
  % PB: 0%
Naked oocytes (NO) [2]; [11]
  % GVB: 4.6%
  % PB: 0%
Naked oocytes (NO) [2]; co-culture with FF-MAS
  antagonism of FF-MAS induced resumption of meiosis: antagonises the FF-MAS induced resumption of meiosis in a dose-related manner

## CC(C)CCC[C@@H](C)[C@H]1CC[C@H]2[C@@H]3CC=C4[C@@H](O)[C@@H](O)CC[C@]4(C)[C@H]3CC[C@]12C [cholest-5-en-3β,4β-diol]
[3]; [12]
  % GVB: 44.4%
  % PB: 25.9%
[3]; cumulus enclosed oocyte cultured in vitro
  induction of meiosis: induces meiosis
Naked oocytes (NO) [4]; [13]
  % GVB: 50.2%
  % PB: 17.2%
Naked oocytes (NO) [4]; naked oocyte cultured in vitro
  induction of meiosis: induces meiosis
